Results taken from patent US12673961B2 (Agios Pharmaceuticals, Inc., priority 2022, dated 2026).

Molecular target: T1, human PAH with the R408W mutation (Homo sapiens, UniProt P00439, R408W)
T1 construct: expressed in transfected cells
T1 sequence (P00439 1-452 R408W): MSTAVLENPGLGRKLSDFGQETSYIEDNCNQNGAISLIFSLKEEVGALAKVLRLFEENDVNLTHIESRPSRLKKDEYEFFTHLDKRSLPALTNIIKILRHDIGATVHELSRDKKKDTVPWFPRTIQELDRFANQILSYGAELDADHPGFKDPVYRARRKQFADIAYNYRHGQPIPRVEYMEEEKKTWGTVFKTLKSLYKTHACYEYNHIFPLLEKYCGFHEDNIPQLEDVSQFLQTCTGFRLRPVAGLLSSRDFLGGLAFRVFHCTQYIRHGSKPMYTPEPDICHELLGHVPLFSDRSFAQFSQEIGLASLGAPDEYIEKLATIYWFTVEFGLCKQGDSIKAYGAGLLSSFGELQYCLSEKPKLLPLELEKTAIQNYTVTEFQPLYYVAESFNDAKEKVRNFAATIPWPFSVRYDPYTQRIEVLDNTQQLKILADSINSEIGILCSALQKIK
Assay: Cell Based Phenylalanine Flux Assay;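 note: Ten-point dose curve from 2-fold serial dilutions, run in duplicate at 0.5% DMSO final, tracer step used 20 µM sepiapterin and 800 µM labeled phenylalanine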
Settings: A375 cells expressing R408W PAH; 24 hrs with compound, then 20 μM sepiapterin and 800 μM 13C9,15N-Phenylalanine for 4 hours; 13C-Tyrosine in media by LC-MS; average where tested multiple times; read-out: AC50

| SMILES | AC50 |
| --- | --- |
| O=C(c1cnn(-c2ccccn2)c1Cl)N1CCc2[nH]cnc2[C@@H]1c1cc2ccccn2n1 (single isomer, unassigned) | > 5 µM |
| FC(F)c1cccn2nc([C@H]3c4nc[nH]c4CCN3c3nnc(-c4cccnc4)o3)cc12 (single isomer, unassigned) | > 5 µM |
| Cc1c(-c2ncc(C(=O)N3CCc4[nH]cnc4[C@H]3c3cc4ccccn4n3)o2)cnn1C (single isomer, unassigned) | 1 to 5 µM |
| Cc1n[nH]cc1-c1nnc(C(=O)N2CCc3[nH]cnc3[C@H]2c2cc3c(C)cccn3n2)o1 (single isomer, unassigned) | 1 to 5 µM |
| FC1(F)CC(c2nnc(N3CCc4[nH]cnc4[C@H]3c3cc4c(C(F)(F)F)cccn4n3)o2)C1 (single isomer, unassigned) | 1 to 5 µM |
| O=C(c1nnc(C2CC(F)(F)C2)o1)N1CCc2[nH]cnc2[C@H]1c1cc2ccccn2n1 (single isomer, unassigned) | 1 to 5 µM |
| CC(C)(F)c1nnc(N2CCc3[nH]cnc3[C@H]2c2cc3c(C4CC4)cccn3n2)o1 (single isomer, unassigned) | > 5 µM |
| CC(C)c1cccn2nc([C@@H]3c4nc[nH]c4CCN3c3nnc(-c4ncccn4)o3)cc12 (single isomer, unassigned) | 1 to 5 µM |
| Clc1cccn2nc([C@@H]3c4nc[nH]c4CCN3c3nnc(-c4ncccn4)o3)cc12 (single isomer, unassigned) | 1 to 5 µM |
| O=C(c1nnc(-c2ccc(C(F)(F)F)cn2)o1)N1CCc2[nH]cnc2[C@H]1c1cc2ccccn2n1 (single isomer, unassigned) | 1 to 5 µM |
| O=C(c1cnc(-c2ncccn2)o1)N1CCc2[nH]cnc2[C@H]1c1cc2ccccn2n1 (single isomer, unassigned) | 1 to 5 µM |
| Cc1cccc2cc([C@@H]3c4nc[nH]c4CCN3c3nnc(C4CCC4)o3)nn12 (single isomer, unassigned) | 1 to 5 µM |
| Cc1cccn2nc([C@@H]3c4nc[nH]c4CCN3c3cccc(F)n3)cc12 (single isomer, unassigned) | 1 to 5 µM |
| FC(F)(F)c1cccn2nc([C@@H]3c4nc[nH]c4CCN3c3nnc(-c4cccnc4)o3)cc12 (single isomer, unassigned) | 1 to 5 µM |
| Fc1cccn2nc([C@@H]3c4nc[nH]c4CCN3c3nnc(-c4cccnn4)o3)cc12 (single isomer, unassigned) | 1 to 5 µM |
| Fc1cccnc1-c1nnc(N2CCc3[nH]cnc3[C@H]2c2cc3c(C(F)(F)F)cccn3n2)o1 (single isomer, unassigned) | 1 to 5 µM |
| c1cc(C2CC2)c2cc([C@@H]3c4nc[nH]c4CCN3c3nnc(-c4ccncn4)o3)nn2c1 (single isomer, unassigned) | 1 to 5 µM |
| O=C(C1CC1)N1CCc2[nH]cnc2[C@H]1c1cc2c(F)cccn2n1 (single isomer, unassigned) | > 5 µM |
| Cn1cncc1-c1nnc(C(=O)N2CCc3[nH]cnc3C2c2cc3c(C(F)(F)F)cccn3n2)o1 (single isomer, unassigned) [4S enantiomer of 2-(1-methyl-1H-imidazol-5-yl)-5-14-[4-(trif] | 1 to 5 µM |
| FC1(F)CC(c2nnc(N3CCc4[nH]cnc4C3c3cc4ccccn4n3)o2)C1 (single isomer, unassigned) [4S enantiomer of 2-(3,3-difluorocyclobutyl)-5-[4-{pyrazolo{1] | > 5 µM |
| FC(F)(F)c1ccc(N2CCc3[nH]cnc3C2c2cc3cccc(C(F)(F)F)n3n2)nc1 (single isomer, unassigned) [4S enantiomer of 5-(trifluoromethyl)-2-[4-[7-(trifluoromethy] | 1 to 5 µM |

Same assay, conditions: A375 cells expressing human R408W PAH; 24 hrs compound incubation; 13C-Tyrosine by LC-MS; average where tested multiple times; read-out: AC50

| SMILES | AC50 |
| --- | --- |
| N#Cc1ncoc1C(=O)N1CCc2[nH]cnc2[C@H]1c1cc2ccccn2n1 (single isomer, unassigned) [Example 640] | 0.5 to 1 µM |
| N#Cc1ncoc1C(=O)N1CCc2[nH]cnc2[C@@H]1c1cc2ccccn2n1 (single isomer, unassigned) [Example 641] | > 5 µM |
| Cn1ccc(-c2nnc(C(=O)N3CCc4[nH]cnc4[C@@H]3c3cc4c(C(F)(F)F)cccn4n3)o2)n1 (single isomer, unassigned) [Example 837] | > 5 µM |
| Cn1nc(C(F)F)nc1C(=O)N1CCc2[nH]cnc2C1c1cc2c(Cl)cccn2n1 (stereo in doubt) [Example 781, (R)-(4-(4-chloropyrazolo [1,5-a]pyridin-2-yl)-6,7-dihydro-1H-imidazo[4,5-c]pyridin-5(4H)-yl)(3-(difluoromethyl)-1-methyl-1H-1,2,4-triazol-5-yl)methanone] | 1 to 5 µM |
| Cn1cnc(-c2nnc(C(=O)N3CCc4[nH]cnc4C3c3cc4c(C(F)(F)F)cccn4n3)o2)c1 (stereo in doubt) [Example 934, (S)-(5-(1-methyl-1H-imidazol-4-yl)-1,3,4-oxadiazol-2-yl)(4-(4-(trifluoromethyl)pyrazolo[1,5-a]pyridin-2-yl)-6,7-dihydro-1H-imidazo [4,5-c]pyridin-5(4H)-yl)methanone] | 0.5 to 1 µM |
| CCOc1cccc2cc(C3c4nc[nH]c4CCN3C(=O)c3oc(C(C)(C)O)nc3C(F)F)nn12 (stereo in doubt) [Example 1245, (S)-(4-(difluoromethyl)-2-(2-hydroxypropan-2-yl)oxazol-5-yl)(4-(7-ethoxypyrazolo [1,5-a]pyridin-2-yl)-6,7-dihydro-1H-imidazo[4,5-c]pyridin-5(4H)-yl)methanone] | 0.5 to 1 µM |
| CC(F)(F)c1ncc(C(=O)N2CCc3[nH]cnc3[C@@H]2c2cc3ccccn3n2)s1 [Example 613, (R)-(2-(1,1-difluoroethyl)thiazol-5-yl)(4-(pyrazolo [1,5-a]pyridin-2-yl)-6,7-dihydro-1H-imidazo[4,5-c]pyridin-5(4H)-yl)methanone] | 1 to 5 µM |
| O=C(c1oc(-c2ccccn2)nc1C1CC1)N1CCc2[nH]cnc2[C@H]1c1cc2ccccn2n1 [Example 622, (S)-(4-cyclopropyl-2-(pyridin-2-yl)oxazol-5-yl)(4-(pyrazolo[1,5-a]pyridin-2-yl)-6,7-dihydro-1H-imidazo[4,5-c]pyridin-5(4H)-yl)methanone] | 0.5 to 1 µM |
| O=C(CC1CC(F)C1)N1CCc2[nH]cnc2[C@H]1c1cc2ccccn2n1 (stereo partly drawn) [Example 636, (S)-2-(3-fluorocyclobutyl)-1-(4-(pyrazolo[1,5-a]pyridin-2-yl)-6,7-dihydro-1H-imidazo [4,5-c]pyridin-5(4H)-yl)ethenone] | < 0.5 µM |

Same assay, conditions: A375 cells expressing human R408W PAH; 24 hrs with compound, then sepiapterin and 13C9,15N-Phenylalanine for 4 hours; 13C-Tyrosine by LC-MS; average where tested multiple times; read-out: AC50

| SMILES | AC50 |
| --- | --- |
| Fc1cccc(F)c1-c1nnc(N2CCc3[nH]cnc3[C@H]2c2cc3ccccn3n2)o1 (single isomer, unassigned) [Example 1843] | < 0.5 µM |
| O=C(c1cnc(-c2ccccn2)o1)N1CCc2[nH]cnc2C1c1cc2c(C(F)(F)F)cccn2n1 (stereo in doubt) [Example 2036, (S)-(2-(pyridin-2-yl)oxazol-5-yl)(4-(4-(trifluoromethyl)pyrazolo [1,5-a]pyridin-2-yl)-1,4,6,7-tetrahydro-5H-imidazo[4,5-c]pyridin-5-yl)methanone] | < 0.5 µM |
| O=C(c1cnc(C2CC2)o1)N1CCc2[nH]cnc2C1c1cc2c(F)cccn2n1 (stereo in doubt) [Example 2098, (S)-(2-cyclopropyloxazol-5-yl)(4-(4-fluoropyrazolo[1,5-a]pyridin-2-yl)-1,4,6,7-tetrahydro-5H-imidazo[4,5-c]pyridin-5-yl)methanone] | < 0.5 µM |
| CC(C)c1nnc(N2CCc3[nH]cnc3C2c2cc3c(F)cccn3n2)o1 (stereo in doubt) [Example 2323, (S)-2-(4-(4-fluoropyrazolo [1,5-a]pyridin-2-yl)-1,4,6,7-tetrahydro-5H-imidazo [4,5-c]pyridin-5-yl)-5-isopropyl-1,3,4-oxadiazole] | 0.5 to 1 µM |
